# Like-named read-outs stand apart in the source and are kept apart here. Starred links: 1 amine or outer side, 2 acyl side, 3 side chain; linkers in the order of their positions; H or OH if unused. Positions of bridges follow the written chain, without caps; N, C: chain ends. Non-standard residues stand in square brackets, D forms with d. Residues, ends and D or L forms follow the SMILES beside them. X6 = N=C(N)NCCC[C@H](N[*:1])C(=O)c1nc2ccc(C(=O)[*:2])cc2s1
# Columns and labels:
# Format in all cases: biochemical
# matriptase = molecular target: T1, matriptase (Homo sapiens, UniProt Q9Y5Y6); experiment: Fluorescent kinetic enzyme assay of matriptase activity (Boc-QAR-AMC)
# T1 construct: purchased R&D Systems 3946-SE-010
# T1 sequence (Q9Y5Y6 615-855 limits assumed): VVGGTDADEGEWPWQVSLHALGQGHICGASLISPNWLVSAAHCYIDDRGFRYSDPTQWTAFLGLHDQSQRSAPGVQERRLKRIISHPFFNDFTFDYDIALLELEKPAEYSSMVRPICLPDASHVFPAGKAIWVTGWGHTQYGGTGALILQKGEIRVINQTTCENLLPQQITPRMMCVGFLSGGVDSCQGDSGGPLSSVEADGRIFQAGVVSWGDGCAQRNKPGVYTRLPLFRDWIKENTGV
# [1] = molecular target: T2, recombinant HGFA serine protease domain (Homo sapiens, UniProt Q04756); experiment: Fluorescent kinetic enzyme assay of HGFA activity (Boc-QLR-AMC)
# T2 construct: His6 tag (N); seven amino acid spacer plus TEV cleavage site (N); made in house; host or cells: High 5 insect cells (baculovirus; Sf9 for virus production)
# T2 sequence (Q04756 373-655): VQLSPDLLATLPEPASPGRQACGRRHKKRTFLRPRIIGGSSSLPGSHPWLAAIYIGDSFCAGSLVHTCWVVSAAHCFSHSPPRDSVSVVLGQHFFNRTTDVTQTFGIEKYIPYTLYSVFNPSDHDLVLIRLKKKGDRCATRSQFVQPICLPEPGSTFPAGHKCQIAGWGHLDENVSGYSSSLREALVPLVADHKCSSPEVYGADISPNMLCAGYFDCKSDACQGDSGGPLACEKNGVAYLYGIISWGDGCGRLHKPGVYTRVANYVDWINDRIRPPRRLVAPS
# From the text: The compounds prepared in Examples 1 to 8 were subjected to a series of inhibitions studies. The compounds were first tested in an HGFA enzymatic assay using the fluorogenic substrate Boc-QLR-AMC with a recombinant form of the HGFA serine protease domain.
# This PCR product was cloned into the SfoI-HindIII sites of a modified pFastBac HT baculovirus expression vector (Addgene, Cambridge, MA). This vector contains a six amino His tag followed by a seven amino spacer and a seven amino acid TEV cleavage site placed immediately downstream of the honey bee melittin signal peptide. Using a modified Bac to Bac Expression System (Life Technologies, Carlsbad, CA), recombinant HGFA bacmids were obtained by transforming DH10Bac Escherichia coli cells. To obtain HGFA containing baculovirus, purified bacmids were transfected into Sf9 insect cells. After 5 days in culture at 27° C., media was harvested from transfected Sf9 cells. This media was used to prepare baculovirus infected insect cells (BIICs). These BIIICs were used to infect High 5 insect cells. Four days post infection, media was harvested, and recombinant protein was prepared as follows. Media was chilled to 4° C. and spun at 4000×g for 20 minutes (all subsequent steps were performed at 4° C. unless noted). Clarified media was passed first through a Whatman GF/B 1 um (#1821-047, GE Healthcare Life Sciences, Piscataway, NJ) and then a 0.22 μm PES membrane (#99955, TPP Techno Plastic Products AG, Trasadingen, Switzerland) and then concentrated using a Pall Centramate tangential flow system and Centramate T-series Cassette (#OS010T12, Pall Corporation, Port Washington, NY). Concentrated media was then buffer exchanged in two steps, five volumes of 50 mM Na-phosphate, 500 mM NaCl, pH 6.2, followed by five volumes of 50 mM Na-phosphate, 500 mM NaCl, pH 7.5. […] After mixing this slurry for 12 hours, nickel agarose beads were allowed to settle by gravity and then loaded into a column. Beads were washed with buffer (25 mM Na-phosphate, 500 mM NaCl, 25 mM imidazole, pH 8) and the bound protein eluted using (25 mM Na-phosphate, 500 mM NaCl, 250 mM imidazole, pH 8). Using a Amicon Ultra-4 Centrifugal filters (#UFC801008, Merck Millipore, Ltd., Tullagreen, Ireland), peak protein fractions were concentrated and run over a Superdex-200 10/300 GL column (GE Healthcare Life Sciences, Piscataway, NJ) in 10 mM Tris, 200 mM NaCl, 0.2 mM EDTA, pH 8. HGFA containing fractions were pooled, concentrated, made 50% glycerol, and stored at minus 20° C. Protein was quantitated using a modified Lowry protein assay (#500-0006, Bio-Rad Laboratories, Hercules, CA) and specific activity determined using Boc-QLR-AMC substrate.
# Fluorescent kinetic enzyme assays of HGFA, matriptase, and hepsin activity: Compounds (0-20 μM final concentration in reaction) were diluted in DMSO (2% DMSO final concentration in reaction) and then mixed with either recombinant HGFA serine protease domain, matriptase (#3946-SE-010, R&D Systems, Minneapolis, Minnesota), or activated hepsin* (#4776-SE-010, R&D Systems, Minneapolis, Minnesota) in black 384 well plates (Corning #3575. Coming, NY). The final assay concentration for HGFA, matriptase, and hepsin, were 6.25 nM, 0.2 nM, and 0.3 nM, respectively in TNC buffer (25 mM Tris, 150 mM NaCl, 5 mM CaCl2, 0.01% Triton X-100, pH 8). After thirty minutes of incubation at room temperature, Boc-QLR-AMC substrate was added (HGFA assay) or Boc-QAR-AMC substrate (matriptase, and hepsin assays). Fluorescence (excitation at 380 nm and emission at 460 nm) was kinetically measured at room temperature over a 1 hour time period using a Biotek Synergy 2 plate reader (Winnoski, VT). From a plot of the mean reaction velocity versus the inhibitor concentration, a non-linear four parameter curve fit was performed using GraphPad Prism (GraphPad Software, San Diego, CA) to determine inhibitor IC50s. The IC50 values were determined from the average of three or more separate experimental determinations. […]
# recombinant thrombin = recombinant thrombin (Homo sapiens, UniProt P00734); experiment: Chromogenic kinetic enzyme assay of thrombin (S2238)
# Procedure: (§1) Using GraphPad Prism (GraphPad Software, San Diego, CA), a four-parameter curve fit was used to determine the inhibitor IC50s from a plot of the mean reaction velocity versus the inhibitor concentration. The IC50 values represent the average of three or more separate experimental determinations. Apparent Ki values were calculated from the IC50 values using the Cheng and Prusoff equation (Ki=IC50/(1+[S]/Km).
# (§2) Using GraphPad Prism version 6.04 software program, (GraphPad Software, San Diego, CA, graphpad.com), a four parameter curve fit was used to determine the inhibitor IC50s from a plot of the mean reaction velocity versus the inhibitor concentration.
# (§3) Fluorescent inhibitor and chromogenic proteolytic assays were performed for compounds prepared in Example 11 in general accordance with the procedures described in Example 9.
# activated hepsin = molecular target: T3, activated hepsin (Homo sapiens, UniProt P05981); experiment: Fluorescent kinetic enzyme assay of hepsin activity (Boc-QAR-AMC)
# T3 construct: purchased R&D Systems 4776-SE-010
# Factor Xa = Factor Xa (Homo sapiens, UniProt P00742); experiment: Chromogenic kinetic enzyme assay of Factor Xa (S2222)
# Procedure: as §1, §2, §3
# [2] = Example 12, read-out: IC50 for matriptase
# [3] = Table 3, average of three experiments, read-out: Thrombin IC50
# [4] = Example 12, read-out: IC50 for hepsin
# [5] = Table 2, chromogenic assay, read-out: Thrombin* (IC50 nM)
# [6] = Table 2, read-out: Matriptase (IC50 nM)
# [7] = Table 2, read-out: HGFA (IC50 nM)
# [8] = Table 2, read-out: Hepsin (IC50 nM)
# [9] = Table 2, chromogenic assay, read-out: Factor Xa* (IC50 nM)
# T3 sequence (P05981 163-417 limits assumed): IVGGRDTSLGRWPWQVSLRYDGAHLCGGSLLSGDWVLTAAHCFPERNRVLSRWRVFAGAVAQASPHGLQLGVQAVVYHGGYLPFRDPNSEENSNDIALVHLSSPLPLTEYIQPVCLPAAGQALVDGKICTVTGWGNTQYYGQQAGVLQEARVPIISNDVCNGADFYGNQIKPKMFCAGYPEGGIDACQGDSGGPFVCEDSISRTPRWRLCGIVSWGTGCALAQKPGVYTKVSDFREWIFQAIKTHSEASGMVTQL
# T3 sequence (P05981 1-162 partner limits assumed): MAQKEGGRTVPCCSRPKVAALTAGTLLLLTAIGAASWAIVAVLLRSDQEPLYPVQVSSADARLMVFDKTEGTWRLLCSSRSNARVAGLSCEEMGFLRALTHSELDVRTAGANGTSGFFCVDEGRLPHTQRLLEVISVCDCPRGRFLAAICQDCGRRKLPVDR
# Chain of Factor Xa (P00742 235-488 limits assumed): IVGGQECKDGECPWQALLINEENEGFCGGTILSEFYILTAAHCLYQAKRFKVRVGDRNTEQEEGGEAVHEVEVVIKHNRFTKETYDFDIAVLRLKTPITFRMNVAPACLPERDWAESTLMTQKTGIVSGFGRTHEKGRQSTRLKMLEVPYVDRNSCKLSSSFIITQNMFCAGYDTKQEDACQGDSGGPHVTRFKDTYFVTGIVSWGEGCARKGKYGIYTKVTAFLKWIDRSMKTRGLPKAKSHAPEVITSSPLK
# Chain of Factor Xa (P00742 41-179 partner limits assumed): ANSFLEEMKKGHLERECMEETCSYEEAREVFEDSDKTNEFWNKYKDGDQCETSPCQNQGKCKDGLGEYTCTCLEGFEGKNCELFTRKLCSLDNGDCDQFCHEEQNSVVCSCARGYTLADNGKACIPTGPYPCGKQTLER
Compound,"IC50 (Factor Xa; Table 3, average of three experiments, read-out: Factor Xa IC50) [nM]",IC50 (recombinant thrombin; [5]) [nM],IC50 (matriptase; [6]) [nM],"IC50 [1, 7] [nM]",IC50 (activated hepsin; [8]) [nM],IC50 (Factor Xa; [9]) [nM],IC50 (matriptase; [2]) [nM],"IC50 ([1]; Table 3, average of three experiments, read-out: HGFA IC50) [nM]",IC50 (recombinant thrombin; [3]) [nM],IC50 (activated hepsin; [4]) [nM]
"CC(C)C[C@H](NC(=O)OC1(Cc2ccccc2)CCNCC1)C(=O)N[C@@H](CCCNC(=N)N)C(=O)c1nc2ccccc2s1 [Compound 8b, 4-benzylpiperidin-4-yl((S)-1-(((S)-1-(benzo[d]thiazol-2-yl)-5-guanidino-1-oxopentan-2-yl)amino)-4-methyl-1-oxopentan-2-yl)carbamate]",,,,,,,30,1200,> 20000,0.6
"CC(=O)N1CCC(CCc2ccccc2)(OC(=O)N[C@@H](CC(C)C)C(=O)N[C@@H](CCCNC(=N)N)C(=O)c2nc3ccccc3s2)CC1 [Compound 8c, 1-acetyl-4-phenethylpiperidin-4-yl ((S)-1-(((S)-1-(benzo[d]thiazol-2-yl)-5-guanidino-1-oxopentan-2-yl)amino)-4-methyl-1-oxopentan-2-yl)carbamate]",2000,,,,,,70,,7700,0.5
"CSCCC[C@H](NC(C)=O)C(=O)N[C@@H](CCC(N)=O)C(=O)N[C@@H](Cc1ccccc1)C(=O)N[C@@H](CCCNC(=N)N)C(=O)c1nc2ccccc2s1 [MM3130, Ac-MQFR-kbt]",,> 20000,,,,,,,,
"CC(=O)N[C@@H](CCC(N)=O)C(=O)N[C@@H](Cc1ccccc1)C(=O)NC(CCCNC(=N)N)C(=O)c1nc2ccccc2s1 (stereo partly drawn) [MM3144, Ac-QFR-kbt]",,> 20000,,,,,,,,
CC(=O)N[C@H]1CCCCNC(=O)CCC(C(=O)N[C@@H](CCCNC(=N)N)C(=O)c2nc3ccccc3s2)NC(=O)[C@H](CCCNC(=N)N)NC1=O (stereo partly drawn) [VD2109B],,> 20000,0.07,2520,0.04,155,,,,
CC(=O)N[C@H]1CCCCn2cc(nn2)C[C@H](C(=O)N[C@H](CCCNC(=N)N)C(=O)c2nc3ccccc3s2)NC(=O)[C@H](CC(C)C)NC1=O [VD4118B],,,91.2,10900,137,9540,,,,
CC(=O)N[C@H]1Cc2ccc(cc2)OCCCC[C@@H](C(=O)N[C@@H](CCCNC(=N)N)C(=O)c2nc3ccccc3s2)NC(=O)[C@@H](Cc2c[nH]c3ccccc23)NC1=O [VD4162A],,> 20000,30.8,52,,7470,,,,
CC(=O)N[C@H]1Cc2ccc(cc2)OCCCC[C@@H](C(=O)N[C@@H](CCCNC(=N)N)C(=O)c2nc3ccccc3s2)NC(=O)[C@@H](Cc2c[nH]c3ccccc23)NC1=O [VD4162B],,14600,,,,1110,,,,

# Second part, led by results:
"IC50 (Factor Xa; Table 3, average of three experiments, read-out: Factor Xa IC50) [nM]",IC50 (recombinant thrombin; [5]) [nM],IC50 (matriptase; [6]) [nM],"IC50 [1, 7] [nM]",IC50 (activated hepsin; [8]) [nM],IC50 (Factor Xa; [9]) [nM],Compound,IC50 (matriptase; [2]) [nM],"IC50 ([1]; Table 3, average of three experiments, read-out: HGFA IC50) [nM]",IC50 (recombinant thrombin; [3]) [nM],IC50 (activated hepsin; [4]) [nM]
,33.9,11.2,5380,5.4,118,"CC(=O)N[C@H]1CC(=O)NCCCC[C@@H](C(=O)N[C@@H](CCCNC(=N)N)C(=O)c2nc3ccc(C(=O)N[C@@H](C(N)=O)C(C)C)cc3s2)NC(=O)[C@H](CC(C)C)NC1=O [VD3056, 2-(((3S,6S,14S)-6-acetamido-3-isobutyl-2,5,8-trioxo-1,4,9-triazacyclotetradecane-14-carbonyl)-L-arginyl)-N—((R)-1-amino-3-methyl-1-oxobutan-2-yl)benzo[d]thiazole-6-carboxamide] (Ac-DLK[X6][dV]-NH2; lactam 1-3)",,,,
,7940,41.3,,136,1360,"CC(=O)N[C@H]1CC(=O)NCCCC[C@@H](C(=O)N[C@@H](CCCNC(=N)N)C(=O)c2nccs2)NC(=O)[C@H](CC(C)C)NC1=O [VD3076, (3S,6S,14S)-6-acetamido-N—((S)-5-guanidino-1-oxo-1-(thiazol-2-yl)pentan-2-yl)-3-isobutyl-2,5,8-trioxo-1,4,9-triazacyclotetradecane-14-carboxamide]",,,,
,> 20000,2.5,13700,8.8,,"CC(=O)N[C@H]1CC(=O)NCCCC[C@@H](C(=O)N[C@@H](CCCNC(=N)N)C(=O)c2nc3ccccc3s2)NC(=O)[C@H](C)NC1=O [VD3141, (3S,6S,14S)-6-acetamido-N—((S)-1-(benzo[d]thiazol-2-yl)-5-guanidino-1-oxopentan-2-yl)-3-methyl-2,5,8-trioxo-1,4,9-triazacyclotetradecane-14-carboxamide]",,,,
,> 20000,3.7,11800,5.8,13300,"CC(=O)N[C@H]1CC(=O)NCCCC[C@@H](C(=O)N[C@@H](CCCNC(=N)N)C(=O)c2nc3ccccc3s2)NC(=O)[C@H]([C@H](C)O)NC1=O [VD3157, (3S,6S,14S)-6-acetamido-N—((S)-1-(benzo[d]thiazol-2-yl)-5-guanidino-1-oxopentan-2-yl)-3-((S)-1-hydroxyethyl)-2,5,8-trioxo-1,4,9-triazacyclotetradecane-14-carboxamide]",,,,
,> 20000,6.1,,44,17000,"CC(=O)N[C@H]1CC(=O)NCCCC[C@@H](C(=O)N[C@@H](CCCNC(=N)N)C(=O)c2nc3ccccc3s2)NC(=O)[C@H](Cc2ccc(O)cc2)NC1=O [VD3158, (3S,6S,14S)-6-acetamido-N—((S)-1-(benzo[d]thiazol-2-yl)-5-guanidino-1-oxopentan-2-yl)-3-(4-hydroxybenzyl)-2,5,8-trioxo-1,4,9-triazacyclotetradecane-14-carboxamide]",,,,
,,19.5,15600,117,1930,CC(=O)N[C@H]1CCCCn2cc(nn2)C[C@H](C(=O)N[C@@H](CCCNC(=N)N)C(=O)c2nc3ccccc3s2)NC(=O)[C@H](CC(C)C)NC1=O [VD4118],,,,
